PubChem BioAssay (NCI)
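Test compounds were applied to cells in 96-well plates for 48 hours at 5 doses. At the TGI there is no net growth.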

How the values were obtained:
Assay in all cases: growth of human tumour cells (NCI), 48 h
MDA-MB-435 = system: MDA-MB-435
SK-MEL-28 melanoma = system: SK-MEL-28 melanoma
MALME-3M melanoma = system: MALME-3M melanoma
HCT-15 colon = system: HCT-15 colon
HCT-116 colon = system: HCT-116 colon
MOLT-4 leukemia = system: MOLT-4 leukemia
NCI-H460 lung = system: NCI-H460 lung
SN12C renal = system: SN12C renal
COLO 205 colon = system: COLO 205 colon
OVCAR-4 ovarian = system: OVCAR-4 ovarian
OVCAR-5 ovarian = system: OVCAR-5 ovarian
SF-295 CNS = system: SF-295 CNS
A549 NSCLC = system: A549 NSCLC
PC-3 prostate = system: PC-3 prostate
SW-620 colon = system: SW-620 colon
UO-31 renal = system: UO-31 renal
OVCAR-3 ovarian = system: OVCAR-3 ovarian
HCC-2998 colon = system: HCC-2998 colon
SNB-75 CNS = system: SNB-75 CNS
NCI-H226 lung = system: NCI-H226 lung
IGROV1 ovarian = system: IGROV1 ovarian
NCI-H23 lung = system: NCI-H23 lung
HL-60(TB) leukemia = system: HL-60(TB) leukemia
NCI-H522 lung = system: NCI-H522 lung
786-0 renal = system: 786-0 renal
DU-145 prostate = system: DU-145 prostate
HOP-62 NSCLC = system: HOP-62 NSCLC
HS 578T breast = system: HS 578T breast
SK-MEL-2 melanoma = system: SK-MEL-2 melanoma
SR leukemia = system: SR leukemia
MDA-MB-231 breast = system: MDA-MB-231 breast
EKVX NSCLC = system: EKVX NSCLC
KM12 colon = system: KM12 colon
MDA-N = system: MDA-N
LOX IMVI melanoma = system: LOX IMVI melanoma
K-562 leukemia = system: K-562 leukemia
UACC-62 melanoma = system: UACC-62 melanoma
SK-OV-3 ovarian = system: SK-OV-3 ovarian
M14 melanoma = system: M14 melanoma
RPMI-8226 leukemia = system: RPMI-8226 leukemia
HT29 colon = system: HT29 colon
SK-MEL-5 melanoma = system: SK-MEL-5 melanoma
SNB-19 CNS = system: SNB-19 CNS
BT-549 breast = system: BT-549 breast
ACHN renal = system: ACHN renal
HOP-92 NSCLC = system: HOP-92 NSCLC
MCF7 breast = system: MCF7 breast
SF-268 CNS = system: SF-268 CNS
NCI/ADR-RES ovarian = system: NCI/ADR-RES ovarian
TK-10 renal = system: TK-10 renal
U251 CNS = system: U251 CNS
OVCAR-8 ovarian = system: OVCAR-8 ovarian
T-47D breast = system: T-47D breast
SF-539 CNS = system: SF-539 CNS
A498 renal = system: A498 renal
UACC-257 melanoma = system: UACC-257 melanoma
CCRF-CEM leukemia = system: CCRF-CEM leukemia
CAKI-1 renal = system: CAKI-1 renal

In the case of `COc1cc(/C=C/C(=O)OC[C@]23O[C@H]2[C@@H](OC2OC(C)C(O)C(O)C2O)C2C=CO[C@@H](OC4OC(CO)C(O)C(O)C4O)C23)ccc1O` (stereo partly specified), the TGI (MDA-MB-435) is reported as > 100 µM, the TGI (SK-MEL-28 melanoma) is reported as > 100 µM and the TGI (MALME-3M melanoma) is reported as > 100 µM. The TGI (HCT-15 colon) was > 100 µM, the TGI (HCT-116 colon) was > 100 µM and the TGI (MOLT-4 leukemia) was > 100 µM. For the same compound, the TGI (NCI-H460 lung) was > 100 µM, the TGI (SN12C renal) was > 100 µM and the TGI (COLO 205 colon) was > 100 µM. For the same compound, the TGI (OVCAR-4 ovarian) was > 100 µM, the TGI (OVCAR-5 ovarian) was > 100 µM and the TGI (SF-295 CNS) was > 100 µM. For the same compound, the TGI (A549 NSCLC) was > 100 µM, the TGI (PC-3 prostate) was > 100 µM and the TGI (SW-620 colon) was > 100 µM. The TGI (UO-31 renal) was > 100 µM, the TGI (OVCAR-3 ovarian) was > 100 µM and the TGI (HCC-2998 colon) was > 100 µM. For the same compound, the TGI (SNB-75 CNS) was > 100 µM, the TGI (NCI-H226 lung) was > 100 µM and the TGI (IGROV1 ovarian) was > 100 µM. The TGI (NCI-H23 lung) was > 100 µM, the TGI (HL-60(TB) leukemia) was > 100 µM and the TGI (NCI-H522 lung) was > 100 µM. For the same compound, the TGI (786-0 renal) was > 100 µM, the TGI (DU-145 prostate) was > 100 µM and the TGI (HOP-62 NSCLC) was > 100 µM. The TGI (HS 578T breast) was > 100 µM, the TGI (SK-MEL-2 melanoma) was > 100 µM and the TGI (SR leukemia) was > 100 µM. For the same compound, the TGI (MDA-MB-231 breast) was > 100 µM, the TGI (EKVX NSCLC) was > 100 µM and the TGI (KM12 colon) was > 100 µM. The TGI (MDA-N) was > 100 µM, the TGI (LOX IMVI melanoma) was > 100 µM and the TGI (K-562 leukemia) was > 100 µM. The TGI (UACC-62 melanoma) was > 100 µM, the TGI (SK-OV-3 ovarian) was > 100 µM and the TGI (M14 melanoma) was > 100 µM. The TGI (RPMI-8226 leukemia) was > 100 µM, the TGI (HT29 colon) was > 100 µM and the TGI (SK-MEL-5 melanoma) was > 100 µM. The TGI (SNB-19 CNS) was > 100 µM, the TGI (BT-549 breast) was > 100 µM and the TGI (ACHN renal) was > 100 µM. The TGI (HOP-92 NSCLC) was > 100 µM, the TGI (MCF7 breast) was > 100 µM and the TGI (SF-268 CNS) was > 100 µM. The TGI (NCI/ADR-RES ovarian) was > 100 µM, the TGI (TK-10 renal) was > 100 µM and the TGI (U251 CNS) was > 100 µM. For the same compound, the TGI (OVCAR-8 ovarian) was > 100 µM and the TGI (T-47D breast) was > 100 µM.
With `CSc1nc(NC2CC2)c2c(n1)Sc1nc3ccccc3n1N=C2` the TGI (MDA-MB-435) was > 100 µM, the TGI (SK-MEL-28 melanoma) was > 100 µM and the TGI (MALME-3M melanoma) was 50.9 µM. For the same compound, the TGI (SF-539 CNS) was 27.4 µM, the TGI (HCT-15 colon) was > 100 µM and the TGI (HCT-116 colon) was 27.4 µM. The TGI (MOLT-4 leukemia) was > 100 µM, the TGI (NCI-H460 lung) was > 100 µM and the TGI (SN12C renal) was 33.4 µM. The TGI (COLO 205 colon) was > 100 µM, the TGI (OVCAR-4 ovarian) was 55.8 µM and the TGI (OVCAR-5 ovarian) was > 100 µM. The TGI (A549 NSCLC) was 97 µM, the TGI (A498 renal) was 60.8 µM and the TGI (PC-3 prostate) was > 100 µM. The TGI (SW-620 colon) was > 100 µM, the TGI (UO-31 renal) was 44.4 µM and the TGI (OVCAR-3 ovarian) was 40.3 µM. The TGI (HCC-2998 colon) was > 100 µM, the TGI (NCI-H226 lung) was 54.6 µM and the TGI (IGROV1 ovarian) was > 100 µM. For the same compound, the TGI (NCI-H23 lung) was > 100 µM, the TGI (NCI-H522 lung) was > 100 µM and the TGI (786-0 renal) was 21 µM. The TGI (DU-145 prostate) was 46.1 µM, the TGI (HOP-62 NSCLC) was 39.6 µM and the TGI (UACC-257 melanoma) was > 100 µM. The TGI (HS 578T breast) was 24.2 µM, the TGI (SK-MEL-2 melanoma) was 82.4 µM and the TGI (CCRF-CEM leukemia) was > 100 µM. The TGI (SR leukemia) was > 100 µM, the TGI (MDA-MB-231 breast) was 48.9 µM and the TGI (EKVX NSCLC) was 98.7 µM. The TGI (KM12 colon) was > 100 µM, the TGI (MDA-N) was > 100 µM and the TGI (LOX IMVI melanoma) was > 100 µM. For the same compound, the TGI (K-562 leukemia) was > 100 µM, the TGI (UACC-62 melanoma) was 76.9 µM and the TGI (SK-OV-3 ovarian) was 45.9 µM. The TGI (M14 melanoma) was > 100 µM, the TGI (HT29 colon) was > 100 µM and the TGI (SK-MEL-5 melanoma) was 49.5 µM. The TGI (SNB-19 CNS) was 72.5 µM, the TGI (BT-549 breast) was > 100 µM and the TGI (ACHN renal) was 31.1 µM. For the same compound, the TGI (HOP-92 NSCLC) was 73.9 µM, the TGI (MCF7 breast) was 96.2 µM and the TGI (SF-268 CNS) was 80.7 µM. The TGI (NCI/ADR-RES ovarian) was 69.7 µM, the TGI (CAKI-1 renal) was > 100 µM and the TGI (TK-10 renal) was 62.4 µM. It also gave a TGI (U251 CNS) of 61.8 µM and a TGI (OVCAR-8 ovarian) of 85.3 µM.
